In patent US9241488B2, “Azole derivative, method for producing azole derivative, and intermediate compound” (KUREHA CORPORATION, priority 2011, dated 2016):
Like-named read-outs stand apart in the source and are kept apart here.

Experiments:
[1] = system: Wheat pink snow mold (Microdochium nivale); assay: Anti-bacterial effect on various microorganisms (plate medium), M.n; assay type: cell-based
[2] = system: Rice bacterial seeding blight (Rhizopus oryzae); assay: Anti-bacterial effect on various microorganisms (plate medium), R.o; assay type: cell-based
[3] = system: wheat leaf blight-causing microorganisms; assay: Anti-bacterial effect on wheat leaf blight-causing microorganisms (PDA plate, mycelial growth inhibition); assay type: cell-based, Septoria tritici; conditions: 1.25 mg/L in PDA plate medium, 25° C., 14 days
Description: In Test Examples, an anti-bacterial effect of a compound in accordance with the present invention on the wheat leaf blight-causing microorganisms was tested, and was compared with the anti-bacterial effect of a comparative compound (1).
A dimethyl sulfoxide solution (0.6 ml) containing a compound in accordance with the present invention was added to a PDA medium (potato dextrose agar medium) (60 ml) having about 60° C., and the resultant mixture was mixed thoroughly in a 100-ml conical flask. The mixture was poured into a dish, and was solidified. […]
On the other hand, a subject microorganism previously cultured on a plate medium was cut out with use of a cork borer whose diameter was 4 mm, and the wheat leaf blight-causing microorganism on the plate medium thus cut out was inoculated to the chemical-containing plate medium described above. After such inoculation, the chemical-containing plate medium was incubated at 25° C. for 14 days, and then diameters of its flora were measured. A % mycelial growth inhibition was calculated with use of the formula. R=100(dc−dt)/dc (where R=% mycelial extension inhibition, dc=flora diameter in untreated plate, dt=flora diameter in treated plate)
The results obtained as described above were evaluated on a five-point scale according to the following criteria.
• 5: % Mycerial growth inhibition of 80% or higher • 4: % Mycerial growth inhibition of less than 80 to 60% or higher • 3: % Mycerial growth inhibition of less than 60 to 40% or higher • 2: % Mycerial growth inhibition of less than 40 to 20% or higher • 1: % Mycerial growth inhibition of less than 20%

[4] = system: wheat-brown-rust-causing microorganisms; assay: Controlling effect on wheat brown rust (spray, pot test); assay type: in vivo, Puccinia recondita; conditions: 1 mg/L sprayed at 1,000 L/ha, wheat NORIN No. 61, 9 to 14 days after inoculation
Description: Onto a wheat plant (cultivar: NORIN No. 61) grown to the two-leaf stage with use of a square plastic pot (6 cm×6 cm), a wettable formulation such as Formulation Example 1 which was diluted and suspended in water at a concentration of 1 mg/L was sprayed at a rate of 1,000 L/ha. The sprayed leaves were air-dried, and inoculated with spore suspension of wheat-brown-rust-causing microorganisms (adjusted at 200 spores/vision, […] was added at 60 ppm) by spraying, and kept at 25° C. and a high humidity for 48 hours. Thereafter, the plant was kept in a greenhouse. Nine to fourteen days after inoculation, the wheat brown rust lesion degree was evaluated. The protective value was calculated by the following equation. Protective value (%)=(1-mean lesion degree in sprayed plot/mean lesion degree in unsprayed plot)×100 [table] [table]

[5] = system: Wheat Septoria nodorum blotch microorganism (Phaeosphaeria nodorum); assay: Anti-bacterial effect on various microorganisms (plate medium), P.n; assay type: cell-based
[6] = system: Wheat eye spot (Pseudocercoporella herpotrichoides); assay: Anti-bacterial effect on various microorganisms (plate medium), P.h; assay type: cell-based
[7] = system: Wheat fusarium blight (Fusarium graminearum); assay type: cell-based
[8] = system: Barley loose smut (Ustilago nuda); assay: Anti-bacterial effect on various microorganisms (plate medium), U.n; assay type: cell-based
[9] = system: Rice blast (Pyricularia oryzae); assay type: cell-based
[10] = system: Rice bakanae disease (Giberella fujikuroi); assay: Anti-bacterial effect on various microorganisms (plate medium), G.f; assay type: cell-based
[11] = system: Alternaria blotch (Alternaria alternata); assay: Anti-bacterial effect on various microorganisms (plate medium), A.m; assay type: cell-based
[12] = system: Sclerotinia rot (Sclerotinia sclerotiorum); assay: Anti-bacterial effect on various microorganisms (plate medium), S.s; assay type: cell-based
[13] = system: Gray mold (Botritis cinerea); assay: Anti-bacterial effect on various microorganisms (plate medium), B.c; assay type: cell-based
[14] = system: Cucumber fusarium wilt (Fusarium oxysporum); assay: Anti-bacterial effect on various microorganisms (plate medium), F.c; assay type: cell-based
[15] = system: Barley leaf blotch (Rhynchosporium secalis); assay: Anti-bacterial effect on various microorganisms (plate medium), R. sec; assay type: cell-based

Row | SMILES | Growth inhibition grade M.n ([1]; 1.25 mg/L) | Growth inhibition grade M.n ([1]; 5 mg/L) | Growth inhibition grade R.o ([2]; 1.25 mg/L) | Growth inhibition grade R.o ([2]; 5 mg/L) | Growth inhibition grade [3] | Protective value [4] | Growth inhibition grade P.n ([5]; 1.25 mg/L) | Growth inhibition grade P.n ([5]; 5 mg/L) | Growth inhibition grade P.h ([6]; 1.25 mg/L) | Growth inhibition grade P.h ([6]; 5 mg/L) | Growth inhibition grade F.g ([7]; 1.25 mg/L) | Growth inhibition grade F.g ([7]; 5 mg/L) | Growth inhibition grade U.n ([8]; 1.25 mg/L) | Growth inhibition grade U.n ([8]; 5 mg/L) | Growth inhibition grade P.o ([9]; 1.25 mg/L) | Growth inhibition grade P.o ([9]; 5 mg/L) | Growth inhibition grade G.f ([10]; 1.25 mg/L) | Growth inhibition grade G.f ([10]; 5 mg/L) | Growth inhibition grade A.m ([11]; 1.25 mg/L) | Growth inhibition grade A.m ([11]; 5 mg/L) | also measured
1 | COC[C@]1(CCl)CC[C@H](Cc2ccc(Cl)cc2)[C@]1(O)Cn1cncn1 (racemic) [Compound I-16b, (1RS,2RS,5RS)-5-(4-chlorobenzyl)-2-chloromethyl-2-methoxymethyl-1H-[1,2,4]triazole-1-ylmethylcyclopentanol] | 3 (% Mycerial growth inhibition of less than 60 to 40% or higher) | 5 (% Mycerial growth inhibition of 80% or higher) | 5 (% Mycerial growth inhibition of 80% or higher) | 5 (% Mycerial growth inhibition of 80% or higher) |  |  |  |  |  |  |  |  |  |  |  |  |  |  |  |  | 
2 | COC[C@]1(CCl)CC[C@@H](Cc2ccc(F)cc2)[C@]1(O)Cn1cncn1 (racemic) [Compound I-170, (1RS,2RS,5SR)-5-(4-fluorobenzyl)-2-chloromethyl-2-methoxymethyl-1H-[1,2,4]triazole-1-ylmethylcyclopentanol] | 5 (% Mycerial growth inhibition of 80% or higher) | 5 (% Mycerial growth inhibition of 80% or higher) | 5 (% Mycerial growth inhibition of 80% or higher) | 5 (% Mycerial growth inhibition of 80% or higher) | 5 (% Mycerial growth inhibition of 80% or higher) | 4 (61 to 80) | 5 (% Mycerial growth inhibition of 80% or higher) | 5 (% Mycerial growth inhibition of 80% or higher) | 5 (% Mycerial growth inhibition of 80% or higher) | 5 (% Mycerial growth inhibition of 80% or higher) | 5 (% Mycerial growth inhibition of 80% or higher) | 5 (% Mycerial growth inhibition of 80% or higher) | 5 (% Mycerial growth inhibition of 80% or higher) | 5 (% Mycerial growth inhibition of 80% or higher) | 5 (% Mycerial growth inhibition of 80% or higher) | 5 (% Mycerial growth inhibition of 80% or higher) | 5 (% Mycerial growth inhibition of 80% or higher) | 5 (% Mycerial growth inhibition of 80% or higher) | 4 (% Mycerial growth inhibition of less than 80 to 60% or higher) | 5 (% Mycerial growth inhibition of 80% or higher) | Growth inhibition grade S.s ([12]; 1.25 mg/L): 5 (% Mycerial growth inhibition of 80% or higher); Growth inhibition grade S.s ([12]; 5 mg/L): 5 (% Mycerial growth inhibition of 80% or higher); Growth inhibition grade B.c ([13]; 1.25 mg/L): 5 (% Mycerial growth inhibition of 80% or higher); Growth inhibition grade B.c ([13]; 5 mg/L): 5 (% Mycerial growth inhibition of 80% or higher); Growth inhibition grade F.c ([14]; 1.25 mg/L): 5 (% Mycerial growth inhibition of 80% or higher); Growth inhibition grade F.c ([14]; 5 mg/L): 5 (% Mycerial growth inhibition of 80% or higher); Growth inhibition grade R. sec ([15]; 1.25 mg/L): 5 (% Mycerial growth inhibition of 80% or higher); Growth inhibition grade R. sec ([15]; 5 mg/L): 5 (% Mycerial growth inhibition of 80% or higher)
3 | COC[C@]1(CCl)CC[C@@H](Cc2ccccc2)[C@]1(O)Cn1cncn1 (racemic) [Compound I-187, (1RS,2RS,5SR)-5-benzyl-2-chloromethyl-2-methoxymethyl-1H-[1,2,4]triazole-1-ylmethylcyclopentanol] | 5 (% Mycerial growth inhibition of 80% or higher) | 5 (% Mycerial growth inhibition of 80% or higher) | 5 (% Mycerial growth inhibition of 80% or higher) | 5 (% Mycerial growth inhibition of 80% or higher) | 5 (% Mycerial growth inhibition of 80% or higher) | 4 (61 to 80) | 4 (% Mycerial growth inhibition of less than 80 to 60% or higher) | 5 (% Mycerial growth inhibition of 80% or higher) | 5 (% Mycerial growth inhibition of 80% or higher) | 5 (% Mycerial growth inhibition of 80% or higher) | 5 (% Mycerial growth inhibition of 80% or higher) | 5 (% Mycerial growth inhibition of 80% or higher) | 5 (% Mycerial growth inhibition of 80% or higher) | 5 (% Mycerial growth inhibition of 80% or higher) | 5 (% Mycerial growth inhibition of 80% or higher) | 5 (% Mycerial growth inhibition of 80% or higher) | 5 (% Mycerial growth inhibition of 80% or higher) | 5 (% Mycerial growth inhibition of 80% or higher) | 4 (% Mycerial growth inhibition of less than 80 to 60% or higher) | 5 (% Mycerial growth inhibition of 80% or higher) | Growth inhibition grade S.s ([12]; 1.25 mg/L): 5 (% Mycerial growth inhibition of 80% or higher); Growth inhibition grade S.s ([12]; 5 mg/L): 5 (% Mycerial growth inhibition of 80% or higher); Growth inhibition grade B.c ([13]; 1.25 mg/L): 5 (% Mycerial growth inhibition of 80% or higher); Growth inhibition grade B.c ([13]; 5 mg/L): 5 (% Mycerial growth inhibition of 80% or higher); Growth inhibition grade F.c ([14]; 1.25 mg/L): 5 (% Mycerial growth inhibition of 80% or higher); Growth inhibition grade F.c ([14]; 5 mg/L): 5 (% Mycerial growth inhibition of 80% or higher); Growth inhibition grade R. sec ([15]; 1.25 mg/L): 5 (% Mycerial growth inhibition of 80% or higher); Growth inhibition grade R. sec ([15]; 5 mg/L): 5 (% Mycerial growth inhibition of 80% or higher)
